The assay has as its system L1210 leukemia ip in BDF1 mice, survival T/C. The experiment in a line: NCI In Vivo Anticancer Drug Screen. Data for tumor model L1210 Leukemia (intraperitoneal) in B6D2F1 (BDF1) mice. The following applies: endpoint: mean survival time, higher = longer survival. A digest of the protocol: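 Each compound was tested against a transplantable tumor grown in mice. The endpoint was survival, with treated animals benchmarked against vehicle controls as a simple ratio.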

The mark [1] stands for this setting: dose: 100.0 mg/kg/injection, schedule: Q01DX009 (ip), vehicle: Klucel (hydroxypropylcellulose) (HPC).
[2] abbreviates: dose: 200.0 mg/kg/injection, schedule: Q01DX009 (ip), vehicle: Klucel (hydroxypropylcellulose) (HPC).
Setting [3] is: dose: 100.0 mg/kg/injection, schedule: Q01DX009 (ip), vehicle: saline.
The mark [4] stands for this setting: dose: 100.0 mg/kg/injection, schedule: Q04DX003 (ip), vehicle: Klucel (hydroxypropylcellulose) (HPC).
Setting [5] is: dose: 200.0 mg/kg/injection, schedule: Q01DX009 (ip), vehicle: saline.
Setting [6] is: dose: 200.0 mg/kg/injection, schedule: Q04DX003 (ip), vehicle: Klucel (hydroxypropylcellulose) (HPC).
Where [7] appears, read: dose: 400.0 mg/kg/injection, schedule: Q01DX009 (ip), vehicle: saline.
Setting [8] is: dose: 400.0 mg/kg/injection, schedule: Q04DX003 (ip), vehicle: Klucel (hydroxypropylcellulose) (HPC).
Setting [9] is: dose: 100.0 mg/kg/injection, schedule: Q01DX001 (ip), vehicle: saline.
The mark [10] stands for this setting: dose: 200.0 mg/kg/injection, schedule: Q01DX001 (ip), vehicle: saline.
The mark [11] stands for this setting: dose: 400.0 mg/kg/injection, schedule: Q01DX001 (ip), vehicle: saline.
Where [12] appears, read: dose: 50.0 mg/kg/injection, schedule: Q01DX009 (ip), vehicle: saline.
The mark [13] stands for this setting: dose: 100.0 mg/kg/injection, schedule: Q04DX003 (ip), vehicle: saline with Tween-80.
Where [14] appears, read: dose: 200.0 mg/kg/injection, schedule: Q04DX003 (ip), vehicle: saline with Tween-80.
[15] abbreviates: dose: 50.0 mg/kg/injection, schedule: Q01DX009 (ip), vehicle: Klucel (hydroxypropylcellulose) (HPC).

Inconclusive results and toxic doses are left out.

Regarding `COC(=O)c1ccccc1NC(=O)Nc1cccc(F)c1`, the T/C under setting [1] was 95 % of control; the T/C under setting [2] was 101 % of control; the T/C (dose: 400.0 mg/kg/injection, schedule: Q01DX009 (ip), vehicle: Klucel (hydroxypropylcellulose) (HPC)) is 113 % of control.
For `CN(C)P(N)(N)=O`, the T/C is 101 % of control under setting [3]; 97 % of control under setting [4]; 97 % of control under setting [5]; 101 % of control under setting [6]; 103 % of control under setting [7]; 100 % of control under setting [8].
Turning to `CN(C)C(=O)Nc1cccc(OC(=O)NC(C)(C)C)c1`, the T/C is, setting by setting: (dose: 100.0 mg/kg/injection, schedule: Q01DX009 (ip), vehicle: saline with Tween-80) 93 % of control; (dose: 200.0 mg/kg/injection, schedule: Q01DX009 (ip), vehicle: saline with Tween-80) 87 % of control; (dose: 400.0 mg/kg/injection, schedule: Q01DX009 (ip), vehicle: saline with Tween-80) 94 % of control.
On to `CCCCCCC(C)NCCO` (configuration not stated), for which the T/C was 97 % of control (dose: 5.0 mg/kg/injection, schedule: Q01DX001 (ip), vehicle: saline); 106 % of control (dose: 10.0 mg/kg/injection, schedule: Q01DX001 (ip), vehicle: saline); 96 % of control (dose: 20.0 mg/kg/injection, schedule: Q01DX001 (ip), vehicle: saline); 94 % of control (dose: 40.0 mg/kg/injection, schedule: Q01DX001 (ip), vehicle: saline); 100 % of control (dose: 80.0 mg/kg/injection, schedule: Q01DX001 (ip), vehicle: saline).
Turning to `C=C1C(=O)OC2CC(C)C3CC(O)OC(O)C3(C)CC12` (configuration not stated), the T/C runs as follows: (dose: 0.39 mg/kg/injection, schedule: Q01DX005 (ip), vehicle: water) 108 % of control; (dose: 0.78 mg/kg/injection, schedule: Q01DX005 (ip), vehicle: water) 108 % of control; (dose: 1.56 mg/kg/injection, schedule: Q01DX005 (ip), vehicle: water) 106 % of control; (dose: 3.13 mg/kg/injection, schedule: Q01DX005 (ip), vehicle: water) 106 % of control; (dose: 6.25 mg/kg/injection, schedule: Q01DX005 (ip), vehicle: water) 104 % of control.
Turning to `CC12CCCCC1CC/C(=C\c1ccc(Cl)cc1)C2=O` (configuration not stated), the T/C runs as follows: under setting [9], 114 % of control; under setting [10], 95 % of control; under setting [11], 92 % of control.
Turning to `NC(=S)c1nn(C2OC(CO)C(O)C2O)c2ncnc(N)c12` (configuration not stated), the T/C is 122 % of control (dose: 0.78 mg/kg/injection, schedule: Q01DX009 (ip), vehicle: saline); 173 % of control (dose: 3.12 mg/kg/injection, schedule: Q01DX009 (ip), vehicle: saline); 89 % of control (dose: 6.25 mg/kg/injection, schedule: Q01DX009 (ip), vehicle: saline).
On to `COc1cccc(/C=N\O)c1`, for which the T/C runs as follows: under setting [12], 98 % of control; (dose: 50.0 mg/kg/injection, schedule: Q04DX003 (ip), vehicle: saline) 95 % of control; under setting [3], 100 % of control; (dose: 100.0 mg/kg/injection, schedule: Q04DX003 (ip), vehicle: saline) 95 % of control; under setting [5], 96 % of control; (dose: 200.0 mg/kg/injection, schedule: Q04DX003 (ip), vehicle: saline) 101 % of control. In addition, the T/C runs as follows: under setting [7], 95 % of control; (dose: 400.0 mg/kg/injection, schedule: Q04DX003 (ip), vehicle: saline) 95 % of control.
Consider `Cc1cccc(NC(=S)N2CCOCC2)c1`, for which the T/C is, setting by setting: (dose: 87.5 mg/kg/injection, schedule: Q01DX009 (ip), vehicle: Klucel (hydroxypropylcellulose) (HPC)) 110 % of control; (dose: 175.0 mg/kg/injection, schedule: Q01DX009 (ip), vehicle: Klucel (hydroxypropylcellulose) (HPC)) 100 % of control; (dose: 350.0 mg/kg/injection, schedule: Q01DX009 (ip), vehicle: Klucel (hydroxypropylcellulose) (HPC)) 108 % of control.
As to `CCCC(N)C(O)c1ccccc1` (configuration not stated), the T/C was 102 % of control (dose: 75.0 mg/kg/injection, schedule: Q01DX001 (ip), vehicle: saline) and 100 % of control (dose: 150.0 mg/kg/injection, schedule: Q01DX001 (ip), vehicle: saline).
In the case of `CC1=CC2=C(C=O)C(=O)[C@](C)(O)[C@@H](O)C2=CO1`, the T/C reads like this: (dose: 50.0 mg/kg/injection, schedule: Q01DX009 (ip), vehicle: saline with Tween-80) 109 % of control; under setting [13], 93 % of control; under setting [14], 117 % of control.
Take `CCc1c(N)nc(N)nc1Nc1ccc(C)cc1`: the T/C is 95 % of control (dose: 6.0 mg/kg/injection, schedule: Q01DX Z (ip), vehicle: methylcellulose (MC)) and 97 % of control (dose: 12.0 mg/kg/injection, schedule: Q01DX Z (ip), vehicle: methylcellulose (MC)).
In the case of `COC(=O)c1nccnc1N`, the T/C under setting [15] is 94 % of control; the T/C (dose: 75.0 mg/kg/injection, schedule: Q01DX001 (ip), vehicle: alcohol) is 108 % of control; the T/C under setting [1] was 97 % of control; the T/C under setting [4] is 94 % of control; the T/C (dose: 150.0 mg/kg/injection, schedule: Q01DX001 (ip), vehicle: alcohol) is 105 % of control; the T/C under setting [2] is 108 % of control. In addition, the T/C under setting [6] was 92 % of control; the T/C (dose: 300.0 mg/kg/injection, schedule: Q01DX001 (ip), vehicle: alcohol) was 100 % of control; the T/C under setting [8] was 95 % of control.
Take `O=[N+]([O-])c1cccc(-[n+]2cc([O-])on2)c1`: the T/C runs as follows: under setting [15], 94 % of control; under setting [4], 105 % of control; under setting [6], 96 % of control.
For the molecule `CC(=O)CCCC1C(=O)N(c2ccccc2)N(c2ccccc2)C1=O`, the T/C reads like this: under setting [4], 102 % of control; under setting [6], 101 % of control; under setting [8], 96 % of control.
As for `CC(=O)OC1C=CCC2C(=O)C34CC=CC(OC(C)=O)C3(C(=O)c3ccccc3C4=O)C(=O)C12` (configuration not stated), the T/C (dose: 0.25 mg/kg/injection, schedule: Q04DX003 (ip), vehicle: water) is 97 % of control; the T/C (dose: 0.5 mg/kg/injection, schedule: Q04DX003 (ip), vehicle: water) is 102 % of control; the T/C (dose: 1.0 mg/kg/injection, schedule: Q04DX003 (ip), vehicle: water) is 95 % of control; the T/C (dose: 2.0 mg/kg/injection, schedule: Q04DX003 (ip), vehicle: water) is 98 % of control; the T/C (dose: 4.0 mg/kg/injection, schedule: Q04DX003 (ip), vehicle: water) was 102 % of control; the T/C (dose: 8.0 mg/kg/injection, schedule: Q04DX003 (ip), vehicle: water) was 107 % of control. The T/C was 96 % of control (dose: 16.0 mg/kg/injection, schedule: Q04DX003 (ip), vehicle: saline); 92 % of control (dose: 16.0 mg/kg/injection, schedule: Q04DX003 (ip), vehicle: water); 98 % of control (dose: 32.0 mg/kg/injection, schedule: Q04DX003 (ip), vehicle: saline); 102 % of control (dose: 64.0 mg/kg/injection, schedule: Q04DX003 (ip), vehicle: saline).
Take `C/C=C\C(O)(C(=O)OC)c1ccccc1` (configuration not stated): the T/C is 105 % of control (dose: 100.0 mg/kg/injection, schedule: Q01DX001 (ip), vehicle: other); 97 % of control under setting [9]; 107 % of control (dose: 200.0 mg/kg/injection, schedule: Q01DX001 (ip), vehicle: other); 92 % of control under setting [10]; 107 % of control (dose: 400.0 mg/kg/injection, schedule: Q01DX001 (ip), vehicle: other); 92 % of control under setting [11].
With `O=S(=O)(O)c1ccc(/C2=c3\cc/c([n-]3)=C(\c3ccc(S(=O)(=O)O)cc3)c3ccc([n-]3)/C(c3ccc(S(=O)(=O)O)cc3)=c3/cc/c([n-]3)=C(\c3ccc(S(=O)(=O)O)cc3)c3ccc2[n-]3)cc1.[Co]`, the T/C was 97 % of control under setting [12] and 113 % of control under setting [3].
As to `CN(C)CCn1c2ccccc2c2ccccc21`, the T/C was 92 % of control under setting [13]; 92 % of control under setting [14]; 95 % of control (dose: 400.0 mg/kg/injection, schedule: Q04DX003 (ip), vehicle: saline with Tween-80).

The values are drawn from PubChem BioAssay AID248 (DTP/NCI, 2004).
